# Measured values taken from patent EP2891655A1, “Anilides-alkylthioethers as ACAT inhibitors for the treatment de dermatological diseases” (PIERRE FABRE MEDICAMENT, priority 2011, dated 2012).
# pIC50: −log10 of the molar value.
# Assays:
# ACAT [1] = assay: ACAT inhibition in vivo: plasma cholesterol in rats on a hypercholesterolemic diet; details: oral route, 4 days of hypercholesterolemic diet with simultaneous treatment, plasma cholesterol on day 5 (colorimetric)
# Description: Les rats sont soumis à un régime alimentaire hypercholestérolémique pendant 4 jours. Les animaux sont traités simultanément par voie orale avec les différentes molécules. Le cinquième jour les animaux sont euthanasiés et la variation des taux de cholestérol plasmatique circulant analysée par méthode colorimétrique. Les activités sont exprimées en doses efficaces à 50% (DE50), l'unité est le mg/kg.
# ACAT [2] = assay: ACAT activity, rat liver microsomes (method of Chautan et al.); type: biochemical; details: radiolabelled precursor, cholesteryl-oléate formed quantified, read-out: microsomes CI50
# Description: (§1) Les expérimentations utilisent la méthode de Chautan M. et coll., (Anal. Biochem. 1988) afin de déterminer l'activité ACAT. Les activités sont exprimées en concentrations inhibitrices à 50% (CI50), l'unité est le nM. Deux types de préparations enzymatiques ont été utilisés pour analyser l'activité putative des composés : microsomes hépatiques de rat et cellules humaines intactes HepG2. Les microsomes sont obtenus à partir de fractionnement subcellulaire utilisant une étape d'homogénéisation puis une étape d'ultracentrifugation. Le dosage de l'activité ACAT est réalisé par incubation des microsomes hépatiques ou des cellules avec le composé d'intérêt ainsi que le précurseur radiomarqué. La séparation du produit de la réaction à partir du milieu d'incubation acellulaire ou cellulaire est réalisée par élution sur colonne de silice; le cholesteryl-oléate formé est ensuite quantifié en radioanalyse.
# ACAT [3] = assay: ACAT activity, intact HepG2 cells (method of Chautan et al.); type: cell-based, humaines
# Description: as §1
# procollagène de type 1 = details: protein level and mRNA; cited from earlier work
# glandes sébacées = details: primate, chronic treatment; cited from earlier work
# [4] = intact human HepG2 cells; radiolabelled precursor, cholesteryl-oléate formed quantified; read-out: HepG2 CI50
# [5] = read-out: HepG2 CI50; intact human HepG2 cells; radiolabelled precursor, cholesteryl-oléate formed quantified
pIC50 (ACAT [2]),pIC50 (ACAT [3]; [4]),SMILES,Etude in vivo chez le rat DE50 (ACAT [1]) [mg/kg],pIC50 (ACAT [3]; [5]),procollagène de type 1 (procollagène de type 1),effet secondaire sur les glandes sébacées (glandes sébacées)
7.33,7.33,"CCCCCCCCCCCCSC(C)(C)C(=O)N1CCCCC1C(=O)Nc1cc(C)c(O)c(C)c1C (stereo not shown) [Exemple 1, 1-(2-(dodécylthio)-2-méthylpropanoyl)-N-(4-hydroxy-2,3,5-triméthyl-phényl)pipéridine-2-carboxamide]",0.63,,,
7.09,7.32,"CCCCCCCCCCCCSC(C)(C)C(=O)N1CCCC1C(=O)Nc1cc(C)c(O)c(C)c1C (stereo not shown) [Exemple 2, 1-(2-(dodécylthio)-2-méthylpropanoyl)-N-(4-hydroxy-2,3,5-triméthyl-phényl)-pyrrolidine-2-carboxamide]",<0.63,,,
7.74,7.47,"CCCCCCCCCCCCSC(C)(C)C(=O)N1CCC[C@H]1C(=O)Nc1cc(C)c(O)c(C)c1C [Exemple 3, (S)-1-(2-(dodécylthio)-2-méthylpropanoyl)-N-(4-hydroxy-2,3,5-triméthyl-phényl)pyrrolidine-2-carboxamide]",<0.63,,,
,,"CCCCCCCCCCSC(C)(C)C(=O)N1CCC[C@H]1C(=O)Nc1cc(C)c(O)c(C)c1C [Exemple 4, (S)-1-(2-(décylthio)-2-méthylpropanoyl)-N-(4-hydroxy-2,3,5-triméthyl-phényl)-pyrrolidine-2-carboxamide]",0.63,,,
7.47,7.41,"CCCCCCCCCCCCSC(C)(C)C(=O)N1CSC[C@H]1C(=O)Nc1cc(C)c(O)c(C)c1C [Exemple 5, (R)-3-(2-(dodécylthio)-2-méthylpropanoyl)-N-(4-hydroxy-2,3,5-triméthyl-phényl)thiazolidine-4-carboxamide]",<0.63,,,
7.15,7.57,"CCCCCCCCCCCCSC(C(=O)Nc1cc(C)c(O)c(C)c1C)c1ccsc1 (stereo not shown) [Exemple 6, 2-(dodécylthio)-N-(4-hydroxy-2,3,5-triméthylphényl)-2-(thiophén-3-yl)acétamide]",0.17,,,
,,CSc1cc(C)nc(SC)c1NC(=O)CN1CCN(CCSc2nc3ccccc3[nH]2)CC1 [K-604],,,augmentation de procollagène de type 1,
,,CC(C)c1cccc(C(C)C)c1NC(=O)NCC1(c2ccc(N(C)C)cc2)CCCC1.Cl [PD 132301-2],,,,atrophie des glandes sébacées
,,CCCCCCCCN1CCc2c(C)c(CC(=O)O)c(C)c(NC(=O)C(C)(C)C)c21 [pactimibe],,,n'ont pas cette propriété,

SMILES,pIC50 (ACAT [2]),pIC50 (ACAT [3]; [4]),Etude in vivo chez le rat DE50 (ACAT [1]) [mg/kg],pIC50 (ACAT [3]; [5]),procollagène de type 1 (procollagène de type 1),effet secondaire sur les glandes sébacées (glandes sébacées)
"CCCCCCCCCCCCSC(C(=O)Nc1c(C)c(C)c(N)c(C)c1C)c1ccsc1 (stereo not shown) [Exemple 7, chlorhydrate du N-(4-amino-2,3,5,6-tétraméthylphényl)-2-(dodécylthio)-2-(thiophén-3-yl)acétamide]",7.39,,0.16,7.03,,
"CCCCCCCCCCCCSC(C(=O)Nc1c(C)c(C)c(N)c(C)c1C)c1cccs1 (stereo not shown) [Exemple 8, chlorhydrate du N-(4-amino-2,3,5,6-tétraméthylphényl)-2-(dodécylthio)-2-(thiophén-2-yl)acétamide]",7.16,,0.26,7.42,,
